# Assay results from the supplement of paper PMC11061612.
# How the values were obtained:
# Assay in all cases: Bliss excess, mean over the matrix (fraction); higher = more synergy
# [1] = test system: A2780 (Ovarian Carcinoma)
# Method in brief: (§1)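 Cell lines in DMEM/F12 or RPMI with 10% FBS were plated in 1536-well plates, held 24 hours at 37°C, 5% CO2, then given two-drug dose matrices for 72 hours (DMSO typically 0.2%). Viability was read by CellTiter-Glo 2.0 luminescence and scaled as inhibition from 0 (vehicle wells) to 1 (blank wells). Combination Emax is the second-highest inhibition in the matrix; Bliss excess is observed combination effect minus expected EA + EB − EA·EB, EA and EB being single-agent effects.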
# [2] = test system: CGTH-W-1 (Thyroid Gland Carcinoma)
# Method in brief: as §1
# [3] = test system: JHH-2 (Hepatocellular Carcinoma)
# Method in brief: as §1
# [4] = test system: KYSE-220 (Esophageal Squamous Cell Carcinoma)
# Method in brief: as §1
# [5] = test system: LU-165 (Small Cell Lung Carcinoma)
# Method in brief: as §1
# [6] = test system: NCI-H1651 (Lung Adenocarcinoma)
# Method in brief: as §1
# [7] = test system: NCI-H2087 (Lung Adenocarcinoma)
# Method in brief: as §1
# [8] = test system: SW620 (Colorectal Carcinoma)
# Method in brief: as §1
# [9] = test system: UACC-812 (Breast Carcinoma)
# Method in brief: as §1
# [10] = test system: A101D (Melanoma)
# Method in brief: as §1
# [11] = test system: DU-4475 (Breast Carcinoma)
# Method in brief: as §1
SMILES,Bliss excess [1],Bliss excess [2],Bliss excess [3],Bliss excess [4],Bliss excess [5],Bliss excess [6],Bliss excess [7],Bliss excess [8],Bliss excess [9],Bliss excess [10],Bliss excess [11]
"C=CCn1c(=O)c2cnc(Nc3ccc(N4CCN(C)CC4)cc3)nc2n1-c1cccc(C(C)(C)O)n1 [AZD1775] + CCc1c2c(nc3ccc(O)cc13)-c1cc3c(c(=O)n1C2)COC(=O)[C@]3(O)CC [SN-38] (first compound max 1 µM, partner max 0.3 µM)",-0.0704,-0.0747,0.106,-0.0563,-0.0771,-0.0342,0.0067,-0.0563,-0.0472,–,–
"C=CCn1c(=O)c2cnc(Nc3ccc(N4CCN(C)CC4)cc3)nc2n1-c1cccc(C(C)(C)O)n1 [AZD1775] + Nc1ccn([C@@H]2O[C@H](CO)[C@@H](O)C2(F)F)c(=O)n1 [Gemcitabine] (first compound max 1 µM, partner max 0.3 µM)",0.0543,0.0167,0.0264,0.0029,0.0004,-0.0104,0.0247,0.0165,-0.0613,–,–
"CN(CCO)CC[C@H](CSc1ccccc1)Nc1ccc(S(=O)(=O)NC(=O)c2ccc(N3CCC([C@@H](O)c4ccccc4-c4ccc(Cl)cc4)CC3)cc2)cc1S(=O)(=O)C(F)(F)F [AZD4320] + CS(=O)(=O)CCNCc1ccc(-c2ccc3ncnc(Nc4ccc(OCc5cccc(F)c5)c(Cl)c4)c3c2)o1 [Lapatinib] (first compound max 1 µM, 7x7, partner max 10 µM)",0.0005,-0.0184,0.0312,0.0087,–,0.0395,-0.0033,-0.0116,-0.0066,–,–
"Cc1c2c(nn1C)CSCc1cc(n(C)n1)CSc1cc(c3ccccc3c1)OCCCc1c(C(=O)O)n(C)c3c-2c(Cl)ccc13 [AZD5991] + CC(=O)O[C@H]1C(=O)[C@@]2(C)[C@H]([C@H](OC(=O)c3ccccc3)[C@]3(O)C[C@H](OC(=O)[C@H](O)[C@@H](NC(=O)c4ccccc4)c4ccccc4)C(C)=C1C3(C)C)[C@]1(OC(C)=O)CO[C@@H]1C[C@@H]2O [Paclitaxel] (first compound max 1 µM, 7x7, partner max 3 µM)",0.0614,0.037,0.017,-0.006,-0.0443,-0.0345,0.0128,0.0435,0.0968,–,–
"Cc1c2c(nn1C)CSCc1cc(n(C)n1)CSc1cc(c3ccccc3c1)OCCCc1c(C(=O)O)n(C)c3c-2c(Cl)ccc13 [AZD5991] + CS(=O)(=O)CCNCc1ccc(-c2ccc3ncnc(Nc4ccc(OCc5cccc(F)c5)c(Cl)c4)c3c2)o1 [Lapatinib] (first compound max 1 µM, 7x7, partner max 10 µM)",0.0013,0.0013,-0.063,0.0157,-0.125,-0.0015,0.0165,-0.043,0.0603,–,–
"Cc1c2c(nn1C)CSCc1cc(n(C)n1)CSc1cc(c3ccccc3c1)OCCCc1c(C(=O)O)n(C)c3c-2c(Cl)ccc13 [AZD5991] + Nc1ccn([C@@H]2O[C@H](CO)[C@@H](O)C2(F)F)c(=O)n1 [Gemcitabine] (first compound max 1 µM, 7x7, partner max 0.3 µM)",-0.0035,-0.0235,-0.005,0.0842,-0.0278,0.0582,-0.0307,-0.0217,-0.0041,–,–
"C[C@@H]1COCCN1c1cc(C2([S@](C)(=N)=O)CC2)nc(-c2ccnc3[nH]ccc23)n1 [AZD6738] + C1CC(C1)(C(=O)[O-])C(=O)[O-].N.N.[Pt+2] [Carboplatin] (first compound max 10 µM, 7x7, partner max 10 µM)",-0.0379,-0.0098,-0.0309,-0.0021,-0.0517,-0.0327,-0.0344,-0.0461,-0.0423,–,–
"C[C@@H]1COCCN1c1cc(C2([S@](C)(=N)=O)CC2)nc(-c2ccnc3[nH]ccc23)n1 [AZD6738] + Nc1ccn([C@@H]2O[C@H](CO)[C@@H](O)C2(F)F)c(=O)n1 [Gemcitabine] (first compound max 10 µM, 7x7, partner max 0.3 µM)",-0.0243,0.106,0.0069,-0.0686,-0.018,0.039,0.0743,0.0454,0.0592,–,–
"C[C@@H](Nc1cc(F)cc(F)c1)c1cc(C(=O)N(C)C)cc2c(=O)cc(N3CCOCC3)oc12 [AZD8186] + C1CN(CCC1(C(=O)N[C@@H](CCO)C2=CC=C(C=C2)Cl)N)C3=NC=NC4=C3C=CN4 [AZD5363] (first compound max 10 µM, 7x7, partner max 10 µM)",-0.0411,-0.0136,-0.0637,-0.0132,-0.086,-0.0302,-0.0043,-0.0135,-0.0187,–,–
"C[C@@H](Nc1cc(F)cc(F)c1)c1cc(C(=O)N(C)C)cc2c(=O)cc(N3CCOCC3)oc12 [AZD8186] + CC(=O)c1c(C)c2cnc(Nc3ccc(N4CCNCC4)cn3)nc2n(C2CCCC2)c1=O [Palbociclib] (first compound max 10 µM, 7x7, partner max 10 µM)",0.0054,0.0397,-0.0282,-0.0494,-0.0313,-0.0192,-0.0232,0.0238,0.0506,–,–
"C[C@@H](Oc1cc(-c2cnn(C3CCNCC3)c2)cnc1N)c1c(Cl)ccc(F)c1Cl [Crizotinib] + CC1=C(C(=CC=C1)Cl)NC(=O)C2=CN=C(S2)NC3=CC(=NC(=N3)C)N4CCN(CC4)CCO [Dasatinib] (first compound max 10 µM, 7x7, partner max 2 µM)",0.051,0.0795,-0.0101,-0.0166,-0.0337,-0.0149,-0.0254,0.0171,-0.0135,–,–
"C[C@@H](Oc1cc(-c2cnn(C3CCNCC3)c2)cnc1N)c1c(Cl)ccc(F)c1Cl [Crizotinib] + Cn1cnc2c(F)c(Nc3ccc(Br)cc3Cl)c(C(=O)NOCCO)cc21 [Selumetinib] (first compound max 10 µM, 7x7, partner max 10 µM)",0.0077,-0.0275,0.0094,0.0436,-0.082,-0.0478,-0.0078,0.0065,-0.0437,–,–
"CS(=O)(=O)CCNCc1ccc(-c2ccc3ncnc(Nc4ccc(OCc5cccc(F)c5)c(Cl)c4)c3c2)o1 [Lapatinib] + Cn1cnc2c(F)c(Nc3ccc(Br)cc3Cl)c(C(=O)NOCCO)cc21 [Selumetinib] (first compound max 10 µM, 7x7, partner max 10 µM)",-0.018,-0.0291,-0.0273,-0.0056,-0.0543,-0.0355,-0.0455,-0.0193,-0.0001,–,–
"CS(=O)(=O)CCNCc1ccc(-c2ccc3ncnc(Nc4ccc(OCc5cccc(F)c5)c(Cl)c4)c3c2)o1 [Lapatinib] + NC1(c2ccc(-c3nc4ccn5c(=O)[nH]nc5c4cc3-c3ccccc3)cc2)CCC1 [MK-2206] (first compound max 10 µM, 7x7, partner max 10 µM)",-0.027,0.0174,-0.0371,-0.0099,-0.0522,-0.0008,-0.0221,-0.0275,–,-0.0638,0.0428
"O=C(c1cc(Cc2n[nH]c(=O)c3ccccc23)ccc1F)N1CCN(C(=O)C2CC2)CC1 [Olaparib] + CC1(C)CCC(CN2CCN(c3ccc(C(=O)NS(=O)(=O)c4ccc(NCC5CCOCC5)c([N+](=O)[O-])c4)c(Oc4cnc5[nH]ccc5c4)c3)CC2)=C(c2ccc(Cl)cc2)C1 [Venetoclax] (first compound max 10 µM, 7x7, partner max 1 µM)",-0.0044,-0.0433,-0.0527,-0.0369,-0.0248,0.001,-0.0543,-0.0533,-0.0202,–,–
"O=C(c1cc(Cc2n[nH]c(=O)c3ccccc23)ccc1F)N1CCN(C(=O)C2CC2)CC1 [Olaparib] + CN(CC[C@H](CSC1=CC=CC=C1)NC2=C(C=C(C=C2)S(=O)(=O)NC(=O)C3=CC=C(C=C3)N4CCC(CC4)[C@H](C5=CC=CC=C5C6=CC=C(C=C6)Cl)O)S(=O)(=O)C(F)(F)F)CCO [AZD4320] (first compound max 10 µM, 7x7, partner max 1 µM)",-0.0295,-0.0482,-0.0363,-0.0169,-0.008,0.0253,-0.0215,-0.0535,-0.0086,–,–
"O=C(c1cc(Cc2n[nH]c(=O)c3ccccc23)ccc1F)N1CCN(C(=O)C2CC2)CC1 [Olaparib] + COc1nnc2ccc(N3CCC(c4ccc(OCCN5CCN(C)C(=O)[C@H]5C)cc4)CC3)nn12 [AZD5153] (first compound max 10 µM, 7x7, partner max 1 µM)",-0.0856,-0.0247,-0.0195,-0.045,-0.0305,-0.0044,-0.0304,-0.0506,-0.0384,–,–
"O=C(c1cc(Cc2n[nH]c(=O)c3ccccc23)ccc1F)N1CCN(C(=O)C2CC2)CC1 [Olaparib] + Cc1c2c(nn1C)CSCc1cc(n(C)n1)CSc1cc(c3ccccc3c1)OCCCc1c(C(=O)O)n(C)c3c-2c(Cl)ccc13 [AZD5991] (first compound max 10 µM, 7x7, partner max 1 µM)",0.0369,-0.045,-0.0539,-0.0573,-0.0374,-0.0207,-0.0327,-0.0572,-0.0301,–,–
"Cc1nc(-c2cn3c(n2)-c2ccc(-c4cnn(C(C)(C)C(N)=O)c4)cc2OCC3)n(C(C)C)n1 [Taselisib] + O=C(Nc1ccc2[nH]nc(-c3ccncc3)c2c1)[C@@H]1CCN(CC(=O)N2CCN(c3ccc(-c4ncccn4)cc3)CC2)C1 [SCH772984] (first compound max 10 µM, 7x7, partner max 5 µM)",-0.0087,0.0884,-0.0398,0.116,-0.0073,0.0132,0.0543,0.0518,0.0095,–,–
"CC1(C)CCC(CN2CCN(c3ccc(C(=O)NS(=O)(=O)c4ccc(NCC5CCOCC5)c([N+](=O)[O-])c4)c(Oc4cnc5[nH]ccc5c4)c3)CC2)=C(c2ccc(Cl)cc2)C1 [Venetoclax] + CS(=O)(=O)CCNCc1ccc(-c2ccc3ncnc(Nc4ccc(OCc5cccc(F)c5)c(Cl)c4)c3c2)o1 [Lapatinib] (first compound max 1 µM, 7x7, partner max 10 µM)",-0.0363,-0.0396,-0.0664,-0.0233,-0.0289,-0.0182,-0.0431,-0.0409,0.0062,–,–
